Laboratory results published in article PMC4338040, “Design of a Multicomponent Peptide-Woven Nanocomplex for Delivery of siRNA” (PLoS ONE, 2015).

tested on: siRNA; experiment: Gel retardation assay of siRNA encapsulation; type: physicochemical; conditions: 2% agarose, 100 pmol siRNA mixed with peptide 30 min at room temperature, ratios 1:5 to 1:50
Procedure: Peptide-woven siRNA nanocomplexes (PwSN) were prepared by mixing siRNA in diethylpyrocarbonate (DEPC)-treated water (100 pmoles) with peptide carrier with a molar ratio of 1:5 to 1:50 (siRNA: peptide) for 30 min at room temperature. The samples were subjected on 2% agarose gels electrophoresis to examine siRNA encapsulation. To test the stability of the siRNA nanocomplex against RNase A, the nanocomplex containing 100 pmol of siRNA mixed with 20-fold molar excess of peptides, then was incubated in the presence or absence of RNase A (0.2 μg) for up to 6 h at 37°C. After incubation, the RNase A activity was inhibited by addition of 2% sodium dodecyl sulfate (SDS) and subjected to agarose gel electrophoresis.

Substance | siRNA:peptide molar ratios at which siRNA is encapsulated
CRKRLDRNC-GG-RRRRRRRRR [I4R-9r, interleukin-4 receptor-targeting peptide (I4R) connected by GG to nine D-arginine peptide] | between 1:20 and 1:50

tested on: siRNA; experiment: SPR analysis of peptide binding to immobilized siRNA; conditions: peptide with sHGP-9r (19:1 molar ratios), 10, 5, 2.5 and 1.25 μM, biotinylated siRNA on streptavidin chip, 25°C
Procedure: The dynamics of PwSN formation were studied by SPR analysis (SR7500 DC, Reichert Inc, Depew, NY). 5′-Biotinylated siRNAs were diluted to 1 μM in HBS buffer (10 mM HEPES, pH 7.4, 150 mM NaCl, 3.4 mM EDTA, 0.005% Tween20), heated at 85°C for 10 min, cooled to room temperature, diluted to 20 fmol/μl in running buffer (10 mM HEPES, pH 7.4, 150 mM NaCl, 62.5 μg/ml bovine serum albumin, 125 μg/ml tRNA, 1 mM dithiothreitol, 0.05% Tween20), and injected at 10 μl/min. 50–100 response units of siRNA were coated per flow channel on streptavidin-coated sensor chip (NeutrAvidin Surface chip; Reichert Analytical Instrument, Depew, NY). 2-min injections of four different peptide concentrations (10, 5, 2.5, and 1.25 μ M) were injected over the sensor chip surface at 25°C with a flow rate of 25 μl/min. The surface was regenerated by removing bound peptides with a 180-s 2 M NaCl injection and 20-s 0.1% SDS followed by a binding buffer injection to rinse the needle. Sensorgrams were fit to kinetic titration model using Clamp program. To monitor dissociation between peptide and siRNA upon heparan sulfate competition, The 2.5 μM of peptides were injected to reach saturated binding and different concentrations of heparan sulfate were injected.

Substance | binding affinity for siRNA (in words)
CRKRLDRNC-GG-RRRRRRRRR [I4R-9r, interleukin-4 receptor-targeting peptide (I4R) connected by GG to nine D-arginine peptide] | strongest binding affinity
CRKRLDRNCggRARRARRAR [I4R-9r(A3), I4R-9r variant with three alanine substitutions] | lowest affinity
CRKRLDRNCggRRARRRARR [I4R-9r(A2), I4R-9r variant with two alanine substitutions] | lowest affinity
CRKRLDRNCggRRARRRRRR [I4R-9r(A1*), I4R-9r variant with one arginine of 9r replaced by alanine, other position] | moderate affinity
CRKRLDRNCggRRRRARRRR [I4R-9r(A1), I4R-9r variant with one arginine of 9r replaced by alanine] | moderate affinity
